Data on eight compounds can be found in ChEMBL document CHEMBL6103585, “Construction and activity evaluation of novel CHS inhibitors against fungal infections” (Eur J Med Chem, 2025).

Experiment [1] concerns Candida albicans. Put plainly: Antifungal activity against Candida albicans ATCC SC5314 assessed as fungal growth inhibition incubated for 72 hrs by broth microdilution method. The experiment is classed as functional.
The test system of the next experiment is Candida tropicalis. Put plainly: Antifungal activity against Candida tropicalis ATCC 1369 assessed as fungal growth inhibition incubated for 72 hrs by broth microdilution method. It counts as functional. Background: Dilution methods test growth across graded concentrations, often in twofold steps.
A further experiment deals with Cryptococcus neoformans. Put plainly: Antifungal activity against Cryptococcus neoformans ZKCC 2209 assessed as fungal growth inhibition incubated for 72 hrs by broth microdilution method. It counts as functional.
The test system of a further experiment is Aspergillus fumigatus. Briefly: Antifungal activity against Aspergillus fumigatus KM 8001 assessed as fungal growth inhibition incubated for 72 hrs by broth microdilution method. The experiment is classed as functional.
For a further experiment, the system named is Nakaseomyces glabratus. Briefly: Antifungal activity against Candida glabrata assessed as fungal growth inhibition incubated for 72 hrs by broth microdilution method. The experiment is classed as functional.
Experiment [2] deals with Candida albicans. Put plainly: Antifungal activity against fluconazole-resistant Candida albicans CaR assessed as reduction in fungal growth incubated for 72 hrs by broth microdilution method. The experiment is classed as functional.
Experiment [3] concerns Candida albicans. Briefly: Antifungal activity against fluconazole-resistant Candida albicans 17# assessed as reduction in fungal growth incubated for 72 hrs by broth microdilution method. The experiment is classed as functional.
The subject of experiment [4] is Candida albicans. Briefly: Antifungal activity against fluconazole-resistant Candida albicans 632 assessed as reduction in fungal growth incubated for 72 hrs by broth microdilution method. The experiment is classed as functional.
The subject of experiment [5] is Candida albicans. Put plainly: Antifungal activity against fluconazole-resistant Candida albicans 901 assessed as reduction in fungal growth incubated for 72 hrs by broth microdilution method. It counts as functional.
The test system of experiment [6] is Candida albicans. Put plainly: Antifungal activity against fluconazole-resistant Candida albicans 904 assessed as reduction in fungal growth incubated for 72 hrs by broth microdilution method. It counts as functional.
The subject of another experiment is A549. Briefly: Cytotoxicity against human A549 cells incubated for 24 hrs by CCK8 assay. The experiment is classed as functional, cell-based. The conditions noted are these: A549, 24 h. (In general: Tetrazolium dyes change colour on reduction, which living cells bring about.)
A further experiment has as its system HeLa. Put plainly: Cytotoxicity against human HeLa cells incubated for 24 hrs by CCK8 assay. It counts as functional, cell-based.
The nature of experiment [7]: Binding affinity to chitin synthase (unknown origin) assessed as dissociation constant by SPR analysis. (SPR reads the build-up and loss of mass on a sensor chip optically.)
The test system of experiment [8] is Candida albicans. Put plainly: Induction of apoptosis in Candida albicans ATCC SC5314 assessed as viable cells by V-FITC/PI staining based flow cytometric analysis (reference value: 93.3%). It counts as functional.
The subject of experiment [9] is Candida albicans. Put plainly: Induction of apoptosis in Candida albicans ATCC SC5314 assessed as early apoptotic cells by V-FITC/PI staining based flow cytometric analysis (reference value: 3.51%). The experiment is classed as functional.
The test system of experiment [10] is Candida albicans. Put plainly: Induction of apoptosis in Candida albicans ATCC SC5314 assessed as late apoptotic cells by V-FITC/PI staining based flow cytometric analysis (reference value: 0.40%). It counts as functional.
In experiment [11] the test system is Candida albicans. Put plainly: Induction of apoptosis in Candida albicans ATCC SC5314 assessed as necrotic cells by V-FITC/PI staining based flow cytometric analysis (reference value: 2.74%). It counts as functional.
Experiment [12] has as its system Candida albicans. Briefly: Fungicidal activity against Candida albicans ATCC SC5314 assessed as live cells (reference value: 92%). The experiment is classed as functional.
For experiment [13], the system named is Candida albicans. Put plainly: Fungicidal activity against Candida albicans ATCC SC5314 assessed as dead cells (reference value: 8%). The experiment is classed as functional.
Experiment [14] relates to Candida albicans. Put plainly: In vivo antifungal activity against Candida albicans 901 infected in mouse model assessed as expansion of alveolar spaces in lung at 5 microg/g, iv pre-infected with fungi by intravenous injection followed by compound administration and measured on day 8 by H and E staining based analysis. The experiment is classed as functional, organism-based. The conditions noted are these: dose 5.0 µg/g, time 8.0 day.

Experiment [15] can be described thus: Inhibition of chitin synthase extracted from Candida tropicalis ATCC 1369 using UDP-GlcNAc as substrate incubated for 1 hrs.
In experiment [16] the test system is Candida albicans. Briefly: Induction of ROS generation in Candida albicans ATCC SC5314 assessed as increase in fluorescence intensity incubated for 12 hrs by fluorescence microscopic analysis. It counts as functional, organism-based.
For experiment [17], the system named is Candida albicans. Briefly: In vivo antifungal activity against Candida albicans 901 infected in mouse model assessed as body weight gain at 5 microg/g, iv pre-infected with fungi by intravenous injection followed by compound administration and measured on day 8. Particulars: dose 5.0 µg/g, time 8.0 day. The experiment is classed as functional, organism-based.

In experiment [18] the test system is Candida albicans. Put plainly: In vivo antifungal activity against Candida albicans 901 infected in mouse model assessed as reduction in genetic material content in lung at 5 microg/g, iv pre-infected with fungi by intravenous injection followed by compound administration and measured on day 8 by H and E staining based analysis. The experiment is classed as functional, organism-based. Particulars: dose 5.0 µg/g, time 8.0 day.

The test system of experiment [19] is Candida albicans. Briefly: In vivo antifungal activity against Candida albicans 901 infected in mouse model assessed as decrease in IL-2 protein expression level at 5 microg/g, iv pre-infected with fungi by intravenous injection followed by compound administration and measured on day 8 by Western blotting analysis. The experiment is classed as functional, organism-based. The conditions noted are these: dose 5.0 µg/g, time 8.0 day.

Experiment [20] relates to Candida albicans. Put plainly: In vivo antifungal activity against Candida albicans 901 infected in mouse model assessed as decrease in IFN-gamma protein expression level at 5 microg/g, iv pre-infected with fungi by intravenous injection followed by compound administration and measured on day 8 by Western blotting analysis. It counts as functional, organism-based. Particulars: dose 5.0 µg/g, time 8.0 day.

The test system of experiment [21] is Candida albicans. Put plainly: In vivo antifungal activity against Candida albicans 901 infected in mouse model assessed as decrease in PD-L1 protein expression level at 5 microg/g, iv pre-infected with fungi by intravenous injection followed by compound administration and measured on day 8 by Western blotting analysis. The conditions noted are these: dose 5.0 µg/g, time 8.0 day. The experiment is classed as functional, organism-based.

Experiment [22] relates to Candida albicans. Briefly: In vivo antifungal activity against Candida albicans 901 infected in mouse model assessed as decrease in IDO protein expression level at 5 microg/g, iv pre-infected with fungi by intravenous injection followed by compound administration and measured on day 8 by Western blotting analysis. The experiment is classed as functional, organism-based. Particulars: dose 5.0 µg/g, time 8.0 day.

Converted amounts (≈) assume the structure as drawn. The source made the active and inactive calls. The calls are words filed in the database; no cut-off is given here.

Take `O=C(NCC(=O)N1CCN(c2ccccc2)CC1)c1nc2ccc(Cl)cc2c(=O)[nH]1`: the MIC50 in the experiment on Candida albicans [1] turned out to be 0.5 µg/mL (≈ 1.17 µM); in the experiment with Candida tropicalis it was 1 µg/mL (≈ 2.35 µM); in the experiment on Cryptococcus neoformans, 2 µg/mL (≈ 4.7 µM); with Aspergillus fumigatus it was 4 µg/mL (≈ 9.39 µM); in the experiment with Nakaseomyces glabratus it was 1 µg/mL (≈ 2.35 µM); in the experiment with Candida albicans [2] it was 4 µg/mL (≈ 9.39 µM). Moreover, the MIC50 came to 2 µg/mL (≈ 4.7 µM) in the experiment on Candida albicans [3], 8 µg/mL (≈ 18.8 µM) in the experiment with Candida albicans [4], 8 µg/mL (≈ 18.8 µM) in the experiment on Candida albicans [5] and 4 µg/mL (≈ 9.39 µM) with Candida albicans [6]. Moreover, the IC50 with A549 and in the experiment with HeLa was over 50 µM each time. Besides, in experiment [7], the Kd stood at 0.0608 µM. Moreover, the Activity in the experiment with Candida albicans [8] was 62.9%; in the experiment with Candida albicans [9], 13.2%; with Candida albicans [10], 7.3%; with Candida albicans [11], 16.6%; in the experiment with Candida albicans [12] it was 22%; in the experiment with Candida albicans [13] it was 78%.

Turning to `OC(Cn1cncn1)(Cn1cncn1)c1ccc(F)cc1F` [FLUCONAZOLE], the MIC50 with Candida albicans [1] was 1 µg/mL (≈ 3.27 µM); in the experiment on Candida tropicalis, 0.5 µg/mL (≈ 1.63 µM); with Cryptococcus neoformans, 2 µg/mL (≈ 6.53 µM); in the experiment on Aspergillus fumigatus it was 4 µg/mL (≈ 13.1 µM); in the experiment with Nakaseomyces glabratus it was 1 µg/mL (≈ 3.27 µM); with Candida albicans [2], at least 16 µg/mL. Besides, the MIC50 in the experiment on Candida albicans [3], in the experiment with Candida albicans [4], in the experiment on Candida albicans [5] and in the experiment with Candida albicans [6] was at least 16 µg/mL throughout.

On to `C[C@@H](c1ncncc1F)[C@](O)(Cn1cncn1)c1ccc(F)cc1F`, for which the result with Candida albicans [14] was inactive.

As for `O=C(CNC(=O)c1nc2ccc(Cl)cc2c(=O)[nH]1)Nc1cccnc1`, the MIC50 in the experiment on Candida albicans [1] was 8 µg/mL (≈ 22.4 µM); with Candida tropicalis it was 8 µg/mL (≈ 22.4 µM); with Cryptococcus neoformans, 8 µg/mL (≈ 22.4 µM); with Aspergillus fumigatus, at least 16 µg/mL; in the experiment with Nakaseomyces glabratus it was 4 µg/mL (≈ 11.2 µM).

For `O=C(NCC(=O)N1CCN(C(=O)c2ccccc2)CC1)c1nc2ccc(Cl)cc2c(=O)[nH]1`, the MIC50 in the experiment with Candida albicans [1] came out at 0.5 µg/mL (≈ 1.1 µM); with Candida tropicalis, 0.5 µg/mL (≈ 1.1 µM); in the experiment on Cryptococcus neoformans, 4 µg/mL (≈ 8.81 µM); with Aspergillus fumigatus it was 2 µg/mL (≈ 4.41 µM); in the experiment on Nakaseomyces glabratus it was 1 µg/mL (≈ 2.2 µM); in the experiment with Candida albicans [2] it was 2 µg/mL (≈ 4.41 µM). In addition, the MIC50 stood at 4 µg/mL (≈ 8.81 µM) in the experiment with Candida albicans [3], 4 µg/mL (≈ 8.81 µM) in the experiment with Candida albicans [4], 8 µg/mL (≈ 17.6 µM) with Candida albicans [5] and 2 µg/mL (≈ 4.41 µM) in the experiment with Candida albicans [6]. The half-maximal inhibitory concentration (IC50) in experiment [15] is 19.7 µM; in the experiment on A549, over 50 µM; in the experiment with HeLa it was over 50 µM. Further, the Kd in [7] came out at 0.00194 µM. Moreover, in the experiment with Candida albicans [16], the outcome was Active. Also, the Activity with Candida albicans [8] turned out to be 53.2%; in the experiment with Candida albicans [9], 11.1%; in the experiment with Candida albicans [10], 12.1%; with Candida albicans [11], 23.6%; in the experiment with Candida albicans [12] it was 6%; in the experiment on Candida albicans [13], 94%.

Consider `CC(=O)N1CCN(C(=O)CNC(=O)c2nc3ccc(Cl)cc3c(=O)[nH]2)CC1`, for which the MIC50 in the experiment on Candida albicans [1] was 1 µg/mL (≈ 2.55 µM); in the experiment on Candida tropicalis it was 1 µg/mL (≈ 2.55 µM); in the experiment on Cryptococcus neoformans, at least 16 µg/mL; with Aspergillus fumigatus, 8 µg/mL (≈ 20.4 µM); in the experiment on Nakaseomyces glabratus, 2 µg/mL (≈ 5.1 µM).

For the compound `O=C(CNC(=O)c1nc2ccc(Cl)cc2c(=O)[nH]1)NCc1ccccc1`, the MIC50 is 4 µg/mL (≈ 10.8 µM) in the experiment on Candida albicans [1]; 2 µg/mL (≈ 5.39 µM) with Candida tropicalis; at least 16 µg/mL with Cryptococcus neoformans; 8 µg/mL (≈ 21.6 µM) in the experiment on Aspergillus fumigatus; 8 µg/mL (≈ 21.6 µM) with Nakaseomyces glabratus. Besides, the IC50 in experiment [15] is 30.3 µM.

Consider `NC(=O)OC[C@H](O)[C@@H](O)[C@H](N)C(=O)N[C@H](C(=O)O)[C@H]1O[C@@H](n2cc(CO)c(=O)[nH]c2=O)[C@H](O)[C@@H]1O` [POLYOXIN B], for which the MIC50 in the experiment on Candida albicans [1] is 4 µg/mL (≈ 7.88 µM); in the experiment on Candida tropicalis it was 8 µg/mL (≈ 15.8 µM); in the experiment on Cryptococcus neoformans, 4 µg/mL (≈ 7.88 µM); in the experiment on Aspergillus fumigatus it was at least 16 µg/mL; with Nakaseomyces glabratus, 2 µg/mL (≈ 3.94 µM); in the experiment on Candida albicans [2], 8 µg/mL (≈ 15.8 µM). Besides, the MIC50 in the experiment with Candida albicans [3] is 2 µg/mL (≈ 3.94 µM); in the experiment on Candida albicans [4], 4 µg/mL (≈ 7.88 µM); in the experiment with Candida albicans [5], 4 µg/mL (≈ 7.88 µM); with Candida albicans [6], 8 µg/mL (≈ 15.8 µM). Also, the IC50 in experiment [15] was 25.5 µM; with A549 it was over 50 µM; in the experiment on HeLa it was over 50 µM. The Kd in [7] amounted to 0.00562 µM. The outcome in the experiment with Candida albicans [16], with Candida albicans [17], with Candida albicans [14], with Candida albicans [18], with Candida albicans [19] and with Candida albicans [20] was Active. The result in the experiment with Candida albicans [21] and with Candida albicans [22] was Active. The Activity in the experiment on Candida albicans [8] is 57.5%; in the experiment with Candida albicans [9], 4.93%; in the experiment on Candida albicans [10], 4.5%; with Candida albicans [11], 33%; in the experiment with Candida albicans [12] it was 19%; with Candida albicans [13], 81%.

One may read the MIC50 as an inhibitory concentration at the 50% level, which refers to growth in some studies and to a panel of isolates in others. As a reminder, the IC50 is the concentration that inhibits the measured activity by half. For orientation: Kd means the concentration at which binding is half-saturated.
